Assay results reported in the NIST ThermoML archive (doi:10.1016/j.fluid.2014.09.014).

Assay: refractive index (other wavelength) (dimensionless); xn = mol fraction of the nth substance listed
Details: 293.5 K, 101 kPa, Liquid, Standard Abbe refractometry

CC(C)OC(C)C [diisopropyl ether] + CC(C)O
refractive index
Details	Wavelength=404.7 nm	Wavelength=435.8 nm	Wavelength=486.1 nm	Wavelength=546.1 nm	Wavelength=587.6 nm	Wavelength=589.3 nm	Wavelength=632.8 nm
x1 = 0.0277	1.388	1.38493	1.38147	1.3786	1.37708	1.37703	1.37572
x1 = 0.0507	1.3879	1.38485	1.38137	1.3785	1.37699	1.37693	1.37562
x1 = 0.051	1.38799	1.38492	1.38146	1.37859	1.37708	1.37702	1.3757
x1 = 0.0717	1.38774	1.38468	1.38121	1.37834	1.37683	1.37678	1.37545
x1 = 0.1528	1.38719	1.38413	1.38066	1.37779	1.37629	1.37623	1.37492
x1 = 0.1553	1.38719	1.38413	1.38066	1.37779	1.37629	1.37623	1.37492
x1 = 0.1938	1.38688	1.38381	1.38034	1.37747	1.37597	1.37591	1.37461
x1 = 0.2029	1.38669	1.38364	1.38016	1.3773	1.3758	1.37574	1.37443
x1 = 0.245	1.3865	1.38325	1.37977	1.37692	1.37541	1.37536	1.37405
x1 = 0.297	1.38605	1.383	1.37951	1.37666	1.37514	1.37509	1.37378
x1 = 0.2973	1.38627	1.3832	1.37973	1.37687	1.37535	1.3753	1.374
x1 = 0.3068	1.38571	1.38264	1.37919	1.37631	1.37481	1.37475	1.37345
x1 = 0.398	1.38461	1.38154	1.37808	1.37522	1.37371	1.37366	1.37236
x1 = 0.4609	1.38404	1.38098	1.37753	1.37466	1.37315	1.3731	1.3718
x1 = 0.5434	1.38333	1.38026	1.37682	1.37395	1.37246	1.3724	1.37111
x1 = 0.6032	1.38277	1.37972	1.37624	1.3734	1.37188	1.37182	1.37052
x1 = 0.6371	1.3824	1.37934	1.37588	1.37304	1.37152	1.37146	1.37017
x1 = 0.701	1.38179	1.37873	1.37528	1.37243	1.37093	1.37087	1.36958
x1 = 0.754	1.38141	1.37834	1.3749	1.37205	1.37055	1.37049	1.3692
x1 = 0.791	1.38107	1.37802	1.37455	1.37172	1.37022	1.37016	1.36887
x1 = 0.8296	1.38071	1.37766	1.37423	1.37135	1.36987	1.36982	1.36854
x1 = 0.8864	1.38051	1.37747	1.374	1.37116	1.36966	1.36961	–
x1 = 0.8903	1.38011	1.37706	1.37363	1.37076	1.36928	1.36922	–
x1 = 0.9113	1.37989	1.37684	1.37339	1.37055	1.36905	1.369	–
x1 = 0.9547	1.37948	1.37645	1.37301	1.37015	1.36866	1.36861	–
x1 = 0.973	1.37918	1.37614	1.37271	1.36984	1.36836	1.3683	–
x1 = 0.9771	1.37921	1.37617	1.37274	1.36988	1.36839	1.36834	–
x1 = 1	1.37888	1.37585	1.37241	1.36955	1.36806	1.36801	–
